# Measurements published in patent US20240400584A1, “COMPOUNDS AND METHODS FOR MODULATING SPLICING” (REMIX THERAPEUTICS INC., priority 2021, published 2024).
# Assays:
# SMN2 = test: Gene panel canonical junction qPCR assay, SMN2 CJ mRNA (Table 7); format: cell-based; conditions: Homo sapiens, read-out: SMN2 CJ mRNA decrease IC50
# Procedure: (§1) Compounds described herein were used to modulate RNA transcript abundance in cells. The expression of a target mRNA was measured by detecting the formation of an exon-exon junction in the canonical transcript (CJ). A compound mediated exon-inclusion event was detected by observing an increase in formation OF A new junction with an alternative exon (AJ). Real-time qPCR assays were used to detect these splicing switches and interrogate the potency of various compounds towards different target Genes. A high-throughput real time quantitative PCR (RT-qPCR) assay was developed to measure these two isoforms of the mRNA (CJ and AJ) for exemplary genes, such as HTT, SMN2, and MYB, together with a control housekeeping gene, GAPDH or GUSB or PPIA, used for normalization. Briefly, the A673 or K562 cell line was treated with various compounds described herein (e.g., compounds of Formula (i)). After treatment, the levels of the HTT, MYB, or SMN2 mRNA targets were determined from each sample of cell lysate by cDNA synthesis followed by qPCR.
# (§2) The data analysis was performed by first determining the ΔCt vs the housekeeper gene. This ΔCt was then normalized against the DMSO control (ΔΔCt) and converted to RQ (relative quantification) using the 2^(−ΔΔCt) equation. The RQ were then converted to a percentage response by arbitrarily setting an assay window of 3.5 and 4.0 ΔCt for HTT-CJ and MYB-CJ respectively and an assay window of 9 and 3 ΔCt for HTT-AJ and MYB-AJ in 96 well format (50,000 K562 cells/well and 15,000 A673 cells per well) and an assay window of 3 and 4 ΔCt for HTT-CJ and MYB-CJ respectively and an assay window of 5 and 3 ΔCt for HTT-AJ and MYB-AJ respectively in 384 well format (8,000 K562 cells/well example). […] The percentage response was then fitted to the 4 parametric logistic equation to evaluate the concentration dependence of compound treatment. The increase in AJ mRNA is reported as AC50 (compound concentration having 50% response in AJ increase) while the decrease in CJ mRNA levels is reported as IC50 (compound concentration having 50% response in CJ decrease).
# (§3) Additional studies were carried out for a larger panel of genes using the protocol provided above. The junction between flanking upstream and downstream exons was used to design canonical junction qPCR assays. At least one of the forward primer, reverse primer or the CY5-labeled 5′ nuclease probe (with 3′ quencher such as ZEN/Iowa Black FQ) was designed to overlap with the exon junction to capture the CJ mRNA transcript. BLAST was used to confirm the specificity of the probeset and parameters such as melting temperature, GC content, amplicon size, and primer dimer formation are considered during their design. Data for the decrease in CJ mRNA levels for four exemplary genes (HTT, SMN2, MYB, and Target C) analyzed in this panel are reported as IC50 (compound concentration having 50% response in CJ decrease).
# MYB [1] = test: Gene panel canonical junction qPCR assay, MYB CJ mRNA (Table 7); format: cell-based; conditions: Homo sapiens, read-out: MYB CJ mRNA decrease IC50
# Procedure: as §1, §2, §3
# Target C = test: Gene panel canonical junction qPCR assay, Target C CJ mRNA (Table 7); format: cell-based, human; conditions: Homo sapiens, read-out: Target C CJ mRNA decrease IC50
# Procedure: as §1, §2, §3
# MYB [2] = test: RT-qPCR splicing assay, MYB AJ/CJ mRNA; format: cell-based; conditions: Homo sapiens, A673 or K562 cells, 24 hours; for IC50: decrease in canonical junction mRNA; for AC50: increase in alternative junction mRNA
# Procedure: as §1
# (§4) The A673 cell line was cultured in DMEM with 10% FBS. Cells were diluted with full growth media and plated in a 96-well plate (15,000 cells in 100 ul media per well). The plate was incubated at 37° C. with 5% CO2 for 24 hours to allow cells to adhere. An 11-point 3-fold serial dilution of the compounds was made in DMSO then diluted in media in an intermediate plate. Compounds were transferred from the intermediate plate to the cell plate with the top dose at a final concentration of 10 uM in the well. Final DMSO concentration was kept at or below 0.25%. The cell plate was returned to the incubator at 37° C. with 5% CO2 for an additional 24 hours.
# (§5) The K562 cell line was cultured in IMDM with 10% FBS. For K562, cells were diluted with full growth media and plated in either a 96-well plate (50,000 cells in 50 uL media per well) or a 384-well plate (8,000-40,000 cells in 45 uL media per well). An 11-point 3-fold serial dilution of the compounds were made in DMSO then diluted in media in an intermediate plate. Compound was transferred from the intermediate plate to the cell plate with the top dose at a final concentration of 10 uM in the well. Final DMSO concentration was kept at or below 0.25%. Final volume was 100 uL for 96-well plate and 50 uL for 384-well plate. The cell plate was then placed in an incubator at 37° C. with 5% CO2 for 24 hours.
# (§6) The cells were then gently washed with 50 uL-100 uL Cold Pbs before proceeding to addition of lysis buffer. 30 uL-50 μL of room temperature lysis buffer with DNAse I (and optionally RNAsin) was added to each well. Cells were shaken/mixed thoroughly at room temperature for 5-10 minutes for lysis to take place and then 3 uL-5 μL of room temperature stop solution was added and wells were shaken/mixed again. After 2-5 minutes, the cell lysate plate was transferred to ice for RT-qPCR reaction setup. The lysates could also be frozen at −80° C. for later use.
# (§7) In some cases, a direct lysis buffer was used. an appropriate volume of 3× lysis buffer (10 mM tRis, 150 mM NaCl, 1.5%-2.5% Igepal and 0.1-1 U/uL RNAsin, pH 7.4) was directly added to either K562 or A673 cells in media and mixed by pipetting 3 times. The plates were then incubated at room temperature with shaking/rocking for 20-50 minutes to allow for lysis to take place. After this time, the cell lysate plate was transferred to ice to set up for the RT-qPCR reactions. The lysates could also be frozen at −80° C. for later use.
# (§8) To set up 10 uL RT-QpcR reactions, cell lysates were transferred to 384-well qPCR plates containing the master mix according to the table below. The plates were sealed, gently vortexed, and spun down before the run. The volumes were adjusted accordingly in some instances where the reaction was carried in 20 µL. The table below summarizes the components of the RT-qPCR reactions:
# (§9) The RT-qPCR reaction was performed using a QuantStudio (ThermoFisher) under the following fast cycling conditions. […]
# HTT [3] = test: RT-qPCR splicing assay, HTT AJ/CJ mRNA; format: cell-based, human; conditions: A673 or K562 cells; for IC50: decrease in canonical junction mRNA; for AC50: increase in alternative junction mRNA
# Procedure: as §1, §4, §5, §6, §7, §8, §9
# HTT [4] = test: Gene panel canonical junction qPCR assay, HTT CJ mRNA (Table 7); format: cell-based, human; conditions: read-out: HTT CJ mRNA decrease IC50
# Procedure: as §1, §2, §3
Compound,IC50 (SMN2) [µM],IC50 (Target C) [µM],IC50 (MYB [2]) [µM],"IC50 (HTT [3]; Homo sapiens, 24 h) [µM]","AC50 (HTT [3]; Homo sapiens, 24 h) [µM]",IC50 (HTT [4]; Homo sapiens) [µM],also measured
"Cc1cc(-c2ccc3c(c2)COc2nc(N4CC[C@H](NC(C)(C)C)C4)ccc2-3)cnn1 (single isomer, unassigned) [Compound 273, N-tert-butyl-1-[8-(6-methylpyridazin-4-yl)-6H-isochromeno[3,4-b]379yrrolid-3-yl]379yrrolidine-3-amine]",> 10,> 10,> 10,> 10,> 10,> 10,IC50 (MYB [1]): > 10 µM; AC50 (MYB [2]): > 10 µM
CN(c1ccc2c(n1)COc1cc(-n3cccn3)ccc1-2)[C@@H]1C[C@H]2CC[C@@H](C1)N2 [Compound 109],,,,,,,IC50 (HTT [3]; 24 hours): 0.1 to 1 µM; AC50 (HTT [3]; 24 hours): 0.1 to 1 µM
CN(c1ccc2c(c1)CCOc1cc(-c3cn[nH]c3)ccc1-2)[C@@H]1C[C@H]2CC[C@@H](C1)N2 [Compound 112],,> 10,,,,,
CN(c1ccc2c(n1)CCOc1cc(-c3cn[nH]c3)ccc1-2)C1CC(C)(C)NC(C)(C)C1 [Compound 114],,< 0.1,,0.1 to 1,< 0.1,0.1 to 1,
CN(c1ccc2c(n1)CCOc1cc(-c3cn[nH]c3)ccc1-2)[C@@H]1C[C@H]2CC[C@@H](C1)N2 [Compound 127],> 10,,> 10,> 10,> 10,> 10,IC50 (MYB [1]): > 10 µM; AC50 (MYB [2]): > 10 µM
CN(c1ccc2c(n1)CCOc1cc(-n3cccn3)ccc1-2)[C@@H]1C[C@H]2CC[C@@H](C1)N2 [Compound 128],,> 10,,> 10,> 10,> 10,
c1cc2c(cc1N[C@@H]1C[C@H]3CC[C@@H](C1)N3)CCOc1cc(-c3cn[nH]c3)ccc1-2 [Compound 132],,> 10,,> 10,> 10,> 10,
CN(c1cnc2c(n1)OCc1cc(-c3cn[nH]c3)ccc1-2)C1CC(C)(C)NC(C)(C)C1 [Compound 138],,1 to 10,,,,,IC50 (HTT [3]; 24 hours): 1 to 10 µM; AC50 (HTT [3]; 24 hours): 1 to 10 µM; IC50 (HTT [4]): 1 to 10 µM
c1cc2c(cc1-c1cn[nH]c1)OCCc1nc(N[C@@H]3C[C@H]4CC[C@@H](C3)N4)ccc1-2 [Compound 140],> 10,,> 10,> 10,> 10,> 10,IC50 (MYB [1]): > 10 µM; AC50 (MYB [2]): > 10 µM
CN(c1ccc2c(n1)OCc1cc(-n3cccn3)ccc1-2)[C@H]1[C@@H]2CNC[C@@H]21 [Compound 194],> 10,> 10,,1 to 10,1 to 10,> 10,
CCN(c1ccc2c(n1)OCc1cc(-n3cccn3)ccc1-2)[C@@H]1C[C@H]2CCC[C@@H](C1)N2 [Compound 195],0.1 to 1,1 to 10,1 to 10,,,0.1 to 1,IC50 (MYB [1]): 1 to 10 µM; AC50 (MYB [2]): > 10 µM
c1cnn(-c2ccc3c(c2)COc2nc(N(C4CC4)[C@@H]4C[C@H]5CCC[C@@H](C4)N5)ccc2-3)c1 [Compound 203],,,,1 to 10,1 to 10,,
c1cnn(-c2ccc3c(c2)COc2nc(N(C4CC4)[C@@H]4C[C@H]5CC[C@@H](C4)N5)ccc2-3)c1 [Compound 205],,,,1 to 10,0.1 to 1,,
Cc1cc(-c2ccc3c(c2)COc2nc(O[C@@H]4C[C@H]5C[C@@H](C4)N5)ccc2-3)ccn1 [Compound 209],0.1 to 1,1 to 10,0.1 to 1,,,0.1 to 1,IC50 (MYB [1]): 0.1 to 1 µM; AC50 (MYB [2]): 1 to 10 µM
c1cc2c(cc1-c1cn[nH]c1)COc1nc(N3CCC34CCCNC4)ccc1-2 (stereo not drawn) [Compound 210],,,> 10,> 10,,,
c1cc2c(cc1-c1cn[nH]c1)COc1nc(N3CCC(NC4CC4)C3)ccc1-2 (stereo not drawn) [Compound 211],,,0.1 to 1,< 0.1,,,
CC(C)(C)NC1CCN(c2ccc3c(n2)OCc2cc(-c4cn[nH]c4)ccc2-3)C1 (stereo not drawn) [Compound 212],,,0.1 to 1,< 0.1,,,
CC(C)(C)NC1CCN(c2ccc3c(n2)OCc2cc(-n4cccn4)ccc2-3)C1 (stereo not drawn) [Compound 213],,,1 to 10,0.1 to 1,,,
c1cnn(-c2ccc3c(c2)COc2nc(N4CCC(NC5CC5)C4)ccc2-3)c1 (stereo not drawn) [Compound 214],,,> 10,> 10,,,
